Results reported in patent US12187713B2, “Immunomodulators, compositions and methods thereof” (Betta Pharmaceuticals Co., Ltd, priority 2019, dated 2025).

Biological target: PD-1/PD-L1 (Homo sapiens (Human), UniProt Q9NZQ7)
Assay: PD-1/PD-L1 Binding Assay (Alphascreen)
Conditions: numeric values
Method: PD-1/PD-L1 Binding Assay (Alphascreen)
The assays were conducted in a standard black 384-well polystyrene plate with a final volume of 20 μL. Inhibitors were first serially diluted in DMSO and then added to the plate wells before the addition of other reaction components. The final concentration of DMSO in the assay was […]. Add 100 nL/well of compound to the 384 reaction plate (6008280, PerkinElmer) with Echo and centrifuge at 1000 rpm for 1 minute. Add 5 μL/well 4×PD-L1 solutions to the 384 reaction plate, centrifuge at 1000 rpm for 1 minute, and add 5 μL/well 4×PD-1 solutions, centrifuge at 1000 rpm for 1 minute, and incubate at 25° C. for 15 minutes. The concentrations of the compounds were 300, 100, 33.33, 11.11, 3.70, 1.23, 0.41, 0.137, 0.046, 0.015, 0 nM, respectively. Add 10 μL/well 2× Anti-6×His AlphaLISA Acceptor beads and Streptavidin Donor beads solution (PerkinElmer-AL356F) to the above 384 reaction plate, centrifuge at 1000 rpm for 1 minute, and incubate at 25° C. in the dark for 120 minutes. Read the AlphaLISA signal value using the Envision Reader. IC50 determination was performed by fitting the curve of percent control activity versus the log of the inhibitor concentration using the GraphPad Prism 8.0 software.

Sequence of PD-1/PD-L1 (Q9NZQ7 19-238): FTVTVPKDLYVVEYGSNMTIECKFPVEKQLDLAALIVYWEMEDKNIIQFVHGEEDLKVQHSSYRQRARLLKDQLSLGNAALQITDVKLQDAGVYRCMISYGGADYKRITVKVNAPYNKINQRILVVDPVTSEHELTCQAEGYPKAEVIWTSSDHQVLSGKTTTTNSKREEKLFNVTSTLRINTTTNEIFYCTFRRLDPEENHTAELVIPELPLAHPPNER

| IC50 [nM] | Structure (SMILES) |
| --- | --- |
| 0.89 | Cc1c(-c2nc3cc(CN(C)[C@@H]4CCC[C@@H]4O)c(OC(F)F)cc3o2)cccc1-c1cccc(-c2nc3cc(CN4CCC[C@H]4C(=O)O)c(OC(F)F)cc3o2)c1C [Example 1, ((6-(difluoromethoxy)-2-(3′-(6-(difluoromethoxy)-5-((((1R,2S)-2-hydroxycyclopentyl)(methyl)amino)methyl)benzo[d]oxazol-2-yl)-2,2′-dimethyl-[1,1′-biphenyl]-3-yl)benzo[d]oxazol-5-yl)methyl)-L-proline] |
| 1.4 | Cc1c(-c2nc3cc(CN4CCC[C@H]4C(=O)O)c(OC(F)F)cc3o2)cccc1-c1cccc(-c2nc3cc(CN4CC(C)(C)C4)c(OC(F)F)cc3o2)c1C#N [Example 4, ((2-(2′-cyano-3′-(6-(difluoromethoxy)-5-((3,3-dimethylazetidin-1-yl)methyl)benzo[d]oxazol-2-yl)-2-methyl-[1,1′-biphenyl]-3-yl)-6-(difluoromethoxy)benzo[d]oxazol-5-yl)methyl)-L-proline] |
| 4.3 | Cc1c(-c2nc3cc(CN4CCC[C@H]4C(=O)O)c(OC(F)F)cc3o2)cccc1-c1cccc(-c2nc3cc(CN4CCCC4)c(OC(F)F)cc3o2)c1F [Example 6, ((6-(difluoromethoxy)-2-(3′-(6-(difluoromethoxy)-5-(pyrrolidin-1-ylmethyl)benzo[d]oxazol-2-yl)-2′-fluoro-2-methyl-[1,1′-biphenyl]-3-yl)benzo[d]oxazol-5-yl)methyl)-L-proline] |
| 0.61 | Cc1c(-c2nc3cc(CNCCO)c(OC(F)F)cc3o2)cccc1-c1cccc(-c2nc3cc(CN4CCC[C@H]4C(=O)O)c(OC(F)F)cc3o2)c1C [Example 7, ((6-(difluoromethoxy)-2-(3′-(6-(difluoromethoxy)-5-(((2-hydroxyethyl)amino)methyl)benzo[d]oxazol-2-yl)-2,2′-dimethyl-[1,1′-biphenyl]-3-yl)benzo[d]oxazol-5-yl)methyl)-L-proline] |
| 18 | Cc1c(-c2nc3cc(CN4CC(F)C4)c(OC(F)F)cc3o2)cccc1-c1cccc(-c2nc3cc(CN4CCC[C@H]4C(=O)O)c(OC(F)F)cc3o2)c1C [Example 9, ((6-(difluoromethoxy)-2-(3′-(6-(difluoromethoxy)-5-((3-fluoroazetidin-1-yl)methyl)benzo[d]oxazol-2-yl)-2,2′-dimethyl-[1,1′-biphenyl]-3-yl)benzo[d]oxazol-5-yl)methyl)-L-proline] |
| 33 | Cc1c(-c2nc3cc(CN4CCC[C@H]4C(N)=O)c(OC(F)F)cc3o2)cccc1-c1cccc(-c2nc3cc(CN4CCC[C@H]4C(=O)O)c(OC(F)F)cc3o2)c1C [Example 11, ((2-(3′-(5-(((S)-2-carbamoylpyrrolidin-1-yl)methyl)-6-(difluoromethoxy)benzo[d]oxazol-2-yl)-2,2′-dimethyl-[1,1′-biphenyl]-3-yl)-6-(difluoromethoxy)benzo[d]oxazol-5-yl)methyl)-L-proline] |
| 1.2 | Cc1c(-c2nc3cc(CN(C)CCO)c(OC(F)F)cc3o2)cccc1-c1cccc(-c2nc3cc(CN4CCC[C@H]4C(=O)O)c(OC(F)F)cc3o2)c1C [Example 17, ((6-(difluoromethoxy)-2-(3′-(6-(difluoromethoxy)-5-(((2-hydroxyethyl)(methyl)amino)methyl)benzo[d]oxazol-2-yl)-2,2′-dimethyl-[1,1′-biphenyl]-3-yl)benzo[d]oxazol-5-yl)methyl)-L-proline] |
| 1.3 | Cc1c(-c2nc3cc(CNC[C@@H]4CCC(=O)N4)c(OC(F)F)cc3o2)cccc1-c1cccc(-c2nc3cc(CN4CCC[C@H]4C(=O)O)c(OC(F)F)cc3o2)c1C [Example 19, ((6-(difluoromethoxy)-2-(3′-(6-(difluoromethoxy)-5-(((((S)-5-oxopyrrolidin-2-yl)methyl)amino)methyl)benzo[d]oxazol-2-yl)-2,2′-dimethyl-[1,1′-biphenyl]-3-yl)benzo[d]oxazol-5-yl)methyl)-L-proline] |
| 1.6 | Cc1c(-c2nc3cc(CN4CC(O)C4)c(OC(F)F)cc3o2)cccc1-c1cccc(-c2nc3cc(CN4CCC[C@H]4C(=O)O)c(OC(F)F)cc3o2)c1C [Example 20, ((6-(difluoromethoxy)-2-(3′-(6-(difluoromethoxy)-5-((3-hydroxyazetidin-1-yl)methyl)benzo [d]oxazol-2-yl)-2,2′-dimethyl-[1,1′-biphenyl]-3-yl)benzo[d]oxazol-5-yl)methyl)-L-proline] |
| 0.59 | CCNCc1cc2nc(-c3cccc(-c4cccc(-c5nc6cc(CN7CCC[C@H]7C(=O)O)c(OC(F)F)cc6o5)c4C)c3C)oc2cc1OC(F)F [Example 21, ((6-(difluoromethoxy)-2-(3′-(6-(difluoromethoxy)-5-((ethylamino)methyl)benzo[d]oxazol-2-yl)-2,2′-dimethyl-[1,1′-biphenyl]-3-yl)benzo[d]oxazol-5-yl)methyl)-L-proline] |
| 0.98 | Cc1c(-c2nc3cc(CN)c(OC(F)F)cc3o2)cccc1-c1cccc(-c2nc3cc(CN4CCC[C@H]4C(=O)O)c(OC(F)F)cc3o2)c1C [Example 24, ((2-(3′-(5-(aminomethyl)-6-(difluoromethoxy)benzo[d]oxazol-2-yl)-2,2′-dimethyl-[1,1′-biphenyl]-3-yl)-6-(difluoromethoxy)benzo[d]oxazol-5-yl)methyl)-L-proline] |
| 0.3 | Cc1c(-c2nc3cc(CN[C@@H]4CCC[C@@H]4O)c(OC(F)F)cc3o2)cccc1-c1cccc(-c2nc3cc(CN4CCC[C@H]4C(=O)O)c(OC(F)F)cc3o2)c1C [Example 25, ((6-(difluoromethoxy)-2-(3′-(6-(difluoromethoxy)-5-((((1R,2S)-2-hydroxycyclopentyl)amino)methyl)benzo[d]oxazol-2-yl)-2,2′-dimethyl-[1,1′-biphenyl]-3-yl)benzo[d]oxazol-5-yl)methyl)-L-proline] |
| 0.66 | Cc1c(-c2nc3cc(CN[C@H]4CCC[C@H]4O)c(OC(F)F)cc3o2)cccc1-c1cccc(-c2nc3cc(CN4CCC[C@H]4C(=O)O)c(OC(F)F)cc3o2)c1C [Example 27, ((6-(difluoromethoxy)-2-(3′-(6-(difluoromethoxy)-5-((((1S,2R)-2-hydroxycyclopentyl)amino)methyl)benzo[d]oxazol-2-yl)-2,2′-dimethyl-[1,1′-biphenyl]-3-yl)benzo[d]oxazol-5-yl)methyl)-L-proline] |

Same assay, conditions: range symbols

| IC50 [nM] | Structure (SMILES) |
| --- | --- |
| 0.1 to 5 | Cc1c(-c2nc3cc(CN(C)[C@@H]4CCC[C@@H]4O)c(OC(F)F)cc3o2)cccc1-c1cccc(-c2nc3cc(CN4CCC[C@@H]4C(=O)O)c(OC(F)F)cc3o2)c1C [Example 26, ((6-(difluoromethoxy)-2-(3′-(6-(difluoromethoxy)-5-((((1R,2S)-2-hydroxycyclopentyl) (methyl)amino)methyl)benzo[d]oxazol-2-yl)-2,2′-dimethyl-[1,1′-biphenyl]-3-yl)benzo[d]oxazol-5-yl)methyl)-D-proline] |
| 0.1 to 5 | Cc1c(-c2nc3cc(CN(C)C[C@H]4CCCO4)c(OC(F)F)cc3o2)cccc1-c1cccc(-c2nc3cc(CN4CCC[C@H]4C(=O)O)c(OC(F)F)cc3o2)c1C [Example 30, ((6-(difluoromethoxy)-2-(3′-(6-(difluoromethoxy)-5-((methyl(((R)-tetrahydrofuran-2-yl)methyl)amino)methyl)benzo[d]oxazol-2-yl)-2,2′-dimethyl-[1,1′-biphenyl]-3-yl)benzo[d]oxazol-5-yl)methyl)-L-proline] |
